The source of these data is ChEMBL document CHEMBL3414526, “Selective, nontoxic CB(2) cannabinoid o-quinone with in vivo activity against triple-negative breast cancer” (J Med Chem, 2015).

Activity calls are given as the source filed them. The calls are words filed in the database; no cut-off is given here. A value given as a limit tells only on which side of the number the result lay.

In data set [1] the test system is MDA-MB-231. Description: Antiproliferative activity against human MDA-MB-231 cells after 48 hrs by MTT assay. The class given is functional, cell-based. As to conditions: MDA-MB-231, 48 h.
Another data set concerns the target Cannabinoid receptor 2 (Homo sapiens, UniProt P34972). Briefly: Displacement of [3H]CP55940 from human CB2 receptor transfected in HEK293 cells after 90 mins by liquid scintillation spectrophotometry. Format: cell-based. (Displacement assays read how much labelled ligand stays bound in the presence of the test substance.)
In the next data set the target is Cannabinoid receptor 1 (Homo sapiens, UniProt P21554). Description: Displacement of [3H]CP55940 from human CB1 receptor transfected in HEK293 cells after 90 mins by liquid scintillation spectrophotometry. The class given is cell-based.
Sequence of Cannabinoid receptor 1 (P21554 whole entry): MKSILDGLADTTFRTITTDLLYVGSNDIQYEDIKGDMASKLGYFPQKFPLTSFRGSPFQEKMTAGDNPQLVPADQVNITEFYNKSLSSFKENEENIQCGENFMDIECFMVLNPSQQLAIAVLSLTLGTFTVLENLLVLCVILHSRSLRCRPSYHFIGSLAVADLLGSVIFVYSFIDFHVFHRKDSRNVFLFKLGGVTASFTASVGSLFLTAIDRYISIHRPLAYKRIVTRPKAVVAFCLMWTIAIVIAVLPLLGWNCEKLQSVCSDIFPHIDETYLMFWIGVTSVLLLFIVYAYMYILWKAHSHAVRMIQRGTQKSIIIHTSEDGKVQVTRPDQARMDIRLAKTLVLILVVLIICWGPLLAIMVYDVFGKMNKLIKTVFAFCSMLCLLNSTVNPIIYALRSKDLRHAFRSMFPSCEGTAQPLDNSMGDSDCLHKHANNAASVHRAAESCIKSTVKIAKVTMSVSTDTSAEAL
For data set [2], the system named is Mus musculus. Briefly: Toxicity in nude mouse xenografted with human MDA-MB-231 cells assessed as toxicity in spleen at 2 mg/kg, ip administered 3 times a week for 4 weeks. The class given is organism-based. Also noted: dose 2 mg/kg, route intraperitoneal. As to conditions: in vivo, 672 h.
In data set [3] the test system is MDA-MB-231. Briefly: Antiproliferative activity against human MDA-MB-231 cells at IC50 after 48 hrs by MTT assay in presence of SR141716. Format: functional, cell-based. A general note: Tetrazolium assays rely on reduction of a dye to a coloured formazan, in cell work by metabolically active cells.
Data set [4] can be described thus: Antiproliferative activity against human SUM159 cells after 48 hrs by MTT assay. As to conditions: SUM-159-PT. The class given is functional, cell-based.
For data set [5], the system named is MDA-MB-231. Description: Antiproliferative activity against human MDA-MB-231 cells at IC50 after 48 hrs by MTT assay in presence of CDI16020046. Format: functional, cell-based.
Data set [6] deals with MDA-MB-231. Briefly: Antitumor activity against human MDA-MB-231 cells xenografted in nude mouse assessed as reduction in tumor volume at 2 mg/kg, ip administered 3 times a week for 4 weeks relative to control. Also noted: dose 2 mg/kg. Format: functional, organism-based. On the technique in general: Xenograft models place foreign cells or tissue in a host animal.
For data set [7], the system named is MDA-MB-231. Description: Antiproliferative activity against human MDA-MB-231 cells at IC50 after 48 hrs by MTT assay in presence of SR144528. The class given is functional, cell-based.
The subject of data set [8] is MDA-MB-231. Briefly: Induction of apoptosis in human MDA-MB-231 cells assessed as increase in active caspase-3 level at IC50 after 48 hrs by Western blotting analysis. The class given is functional, cell-based.
The next data set deals with HMEC. Description: Antiproliferative activity against HMEC at 2 to 30 uM after 48 hrs by MTT assay. The class given is cell-based. The conditions noted are these: human.
Data set [9] concerns Mus musculus. Briefly: Toxicity in nude mouse xenografted with human MDA-MB-231 cells assessed as toxicity in lungs at 2 mg/kg, ip administered 3 times a week for 4 weeks. Format: organism-based. Also noted: dose 2 mg/kg, route intraperitoneal. The conditions noted are these: in vivo, 672 h.
Data set [10] in a line: Antiproliferative activity against human SUM149 cells after 48 hrs by MTT assay. The class given is functional, cell-based. As to conditions: SUM149PT.
The test system of data set [11] is Mus musculus. Briefly: Toxicity in nude mouse xenografted with human MDA-MB-231 cells assessed as toxicity in heart at 2 mg/kg, ip administered 3 times a week for 4 weeks. Format: organism-based. The arrangement: dose 2 mg/kg, route intraperitoneal. The conditions noted are these: in vivo, 672 h.
Another data set concerns MDA-MB-468. Description: Antiproliferative activity against human MDA-MB-468 cells after 48 hrs by MTT assay. The conditions noted are these: MDA-MB-468, 48 h. Format: functional, cell-based.
The subject of data set [12] is MDA-MB-231. Description: Antitumor activity against human MDA-MB-231 cells xenografted in nude mouse assessed as reduction in tumor growth at 2 mg/kg, ip administered 3 times a week for 4 weeks relative to control. The arrangement: dose 2 mg/kg. Format: functional, organism-based.
For data set [13], the system named is MDA-MB-231. Description: Antiproliferative activity against human MDA-MB-231 cells at IC50 after 48 hrs by MTT assay in presence of alpha-tocopherol. Format: functional, cell-based.
Data set [14] concerns Mus musculus. Description: Toxicity in nude mouse xenografted with human MDA-MB-231 cells assessed as toxicity in liver at 2 mg/kg, ip administered 3 times a week for 4 weeks. The class given is organism-based. The arrangement: dose 2 mg/kg, route intraperitoneal. The conditions noted are these: in vivo, 672 h.
Data set [15] deals with MDA-MB-231. Briefly: Antitumor activity against human MDA-MB-231 cells xenografted in nude mouse assessed as reduction in tumor weight at 2 mg/kg, ip administered 3 times a week for 4 weeks relative to control. The class given is functional, organism-based. The arrangement: dose 2 mg/kg.
For data set [16], the system named is MDA-MB-231. Description: Antiproliferative activity against human MDA-MB-231 cells after 72 hrs by MTT assay. Format: functional, cell-based. The conditions noted are these: MDA-MB-231, 72 h.

Sequence of Cannabinoid receptor 2 (P34972 whole entry): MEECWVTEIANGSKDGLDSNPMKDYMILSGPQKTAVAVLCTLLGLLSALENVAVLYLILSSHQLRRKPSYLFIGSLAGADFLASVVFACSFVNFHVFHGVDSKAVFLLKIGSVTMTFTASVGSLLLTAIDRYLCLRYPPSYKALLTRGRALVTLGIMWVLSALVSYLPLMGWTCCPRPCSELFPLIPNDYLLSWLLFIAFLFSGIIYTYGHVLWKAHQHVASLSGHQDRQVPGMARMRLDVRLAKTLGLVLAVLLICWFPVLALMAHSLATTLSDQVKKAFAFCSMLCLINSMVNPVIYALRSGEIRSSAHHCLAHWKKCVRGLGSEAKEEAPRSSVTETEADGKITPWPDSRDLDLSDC

Usually IC50 stands for the concentration needed to halve the response being measured. Low readings indicate greater potency in that assay, high ones weaker potency in that assay. One may read the Ki as a dissociation constant, usually derived from enzyme kinetics or from competition with a known ligand. Low values mean tighter binding, high ones weaker binding. `CCCCCCC(C)(C)C1=CC2=C(C(=O)C1=O)c1[nH]ncc1C(C)(C)O2` displayed an IC50 in the data set on MDA-MB-231 [1] of 8.5 µM. Besides, the results for the inhibition constant Ki at Cannabinoid receptor 2 and at Cannabinoid receptor 1 were 0.398 µM and more than 40 µM, respectively.
Turning to `CCCCCCC(C)(C)C1=CC(=O)C2=C(OC(C)(C)c3c[nH]nc32)C1=O`, the IC50 in the data set on MDA-MB-231 [1] was 8.2 µM.
`CCCCCCC(C)(C)C1=CC2=C(C(=O)C1=O)c1nn(C)cc1C(C)(C)O2` had an IC50 with MDA-MB-231 [1] of 5 µM. In addition, the figures for the Ki at Cannabinoid receptor 2 and on Cannabinoid receptor 1 were 0.597 µM and more than 40 µM, respectively.
`CCCCCCC(C)(C)C1=CC(=O)C2=C(OC(C)(C)c3cn(CC)nc32)C1=O` displayed a 50% inhibitory concentration (IC50) in the data set on MDA-MB-231 [1] of 2.5 µM.
Regarding `CCCCCCC(C)(C)C1=CC2=C(C(=O)C1=O)c1c(cnn1CC)C(C)(C)O2`, the Activity result with Mus musculus [2], in the data set with HMEC, in the data set on Mus musculus [9], in the data set on Mus musculus [11] and in the data set on Mus musculus [14] was “Non-toxic” each time. Further, the outcome in the data set on MDA-MB-231 [3], in the data set with MDA-MB-231 [5], in the data set on MDA-MB-231 [6], with MDA-MB-231 [8], in the data set on MDA-MB-231 [12] and with MDA-MB-231 [15] was Active. Moreover, the IC50 in data set [4] was found to be 4.1 µM; in [10] it was 4.6 µM; in the data set with MDA-MB-231 [1], 2.8 µM; in the data set with MDA-MB-468, 17.3 µM. The result in the data set with MDA-MB-231 [7] and with MDA-MB-231 [13] was inactive. Besides, the inhibition constant (Ki) at Cannabinoid receptor 2 is 0.529 µM; on Cannabinoid receptor 1 it was more than 40 µM.
With `CCCCCCC(C)(C)C1=CC(=O)C2=C(OC(C)(C)c3cn(C)nc32)C1=O`, 5.8 µM corresponded to half-maximal inhibition with MDA-MB-231 [1] (IC50).
In the data set on MDA-MB-231 [16], `CCCCCc1cc(O)c2c(c1)OC(C)(C)[C@@H]1CCC(C)=C[C@@H]21` [DRONABINOL] returned a 50% inhibitory concentration (IC50) of 5 µM.
